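Tested at 5 concentrations; 48 h exposure; 96-well plates; endpoints linearly interpolated, else capped at highest concentration. GI50 is the concentration that inhibits growth by half. The concentration for full growth arrest is given as TGI.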
How the values were obtained:
Test in all cases: growth of human tumour cells (NCI), 48 h
NCI-H226 lung = test system: NCI-H226 lung
HOP-92 NSCLC = test system: HOP-92 NSCLC
UO-31 renal = test system: UO-31 renal
SNB-75 CNS = test system: SNB-75 CNS
A498 renal = test system: A498 renal
SF-295 CNS = test system: SF-295 CNS
OVCAR-4 ovarian = test system: OVCAR-4 ovarian
COLO 205 colon = test system: COLO 205 colon
HOP-62 NSCLC = test system: HOP-62 NSCLC
SR leukemia = test system: SR leukemia
NCI/ADR-RES ovarian = test system: NCI/ADR-RES ovarian
EKVX NSCLC = test system: EKVX NSCLC
UACC-62 melanoma = test system: UACC-62 melanoma
CAKI-1 renal = test system: CAKI-1 renal
SK-MEL-28 melanoma = test system: SK-MEL-28 melanoma
SK-MEL-5 melanoma = test system: SK-MEL-5 melanoma
CCRF-CEM leukemia = test system: CCRF-CEM leukemia
HT29 colon = test system: HT29 colon
SF-268 CNS = test system: SF-268 CNS
MDA-MB-231 breast = test system: MDA-MB-231 breast
MALME-3M melanoma = test system: MALME-3M melanoma
MOLT-4 leukemia = test system: MOLT-4 leukemia
MCF7 breast = test system: MCF7 breast
LOX IMVI melanoma = test system: LOX IMVI melanoma
OVCAR-3 ovarian = test system: OVCAR-3 ovarian
UACC-257 melanoma = test system: UACC-257 melanoma
786-0 renal = test system: 786-0 renal
RPMI-8226 leukemia = test system: RPMI-8226 leukemia

SMILES: CC(=O)c1ccc(N(/C=C/C(=O)C(F)(F)F)CC(=O)c2ccc(Cl)c(Cl)c2)cc1
- GI50 (NCI-H226 lung): 10.9 µM
- TGI (NCI-H226 lung): 27.3 µM
- GI50 (HOP-92 NSCLC): 13.5 µM
- TGI (HOP-92 NSCLC): 29 µM
- GI50 (UO-31 renal): 16.5 µM
- TGI (UO-31 renal): 30.5 µM
- GI50 (SNB-75 CNS): 18 µM
- TGI (SNB-75 CNS): 38.3 µM
- GI50 (A498 renal): 14.5 µM
- TGI (A498 renal): 28.2 µM
- GI50 (SF-295 CNS): 12.3 µM
- TGI (SF-295 CNS): 26.2 µM
- GI50 (OVCAR-4 ovarian): 14 µM
- TGI (OVCAR-4 ovarian): 33.4 µM
- GI50 (COLO 205 colon): 22.6 µM
- TGI (COLO 205 colon): 65 µM
- GI50 (HOP-62 NSCLC): 15.3 µM
- TGI (HOP-62 NSCLC): 28.7 µM
- GI50 (SR leukemia): 3.59 µM
- TGI (SR leukemia): 19.3 µM
- GI50 (NCI/ADR-RES ovarian): 18.2 µM
- TGI (NCI/ADR-RES ovarian): 38.4 µM
- GI50 (EKVX NSCLC): 19.9 µM
- TGI (EKVX NSCLC): 38.5 µM
- GI50 (UACC-62 melanoma): 7.01 µM
- TGI (UACC-62 melanoma): 19.8 µM
- GI50 (CAKI-1 renal): 16.4 µM
- TGI (CAKI-1 renal): 33.1 µM
- GI50 (SK-MEL-28 melanoma): 16.5 µM
- TGI (SK-MEL-28 melanoma): 40.7 µM
- GI50 (SK-MEL-5 melanoma): 17.7 µM
- TGI (SK-MEL-5 melanoma): 32.4 µM
- GI50 (CCRF-CEM leukemia): 10.4 µM
- TGI (CCRF-CEM leukemia): 36.9 µM
- GI50 (HT29 colon): 24.4 µM
- TGI (HT29 colon): > 100 µM
- GI50 (SF-268 CNS): 14.2 µM
- TGI (SF-268 CNS): 31.5 µM
- GI50 (MDA-MB-231 breast): 11.6 µM
- TGI (MDA-MB-231 breast): 25 µM
- GI50 (MALME-3M melanoma): 11.7 µM
- TGI (MALME-3M melanoma): 25 µM
- GI50 (MOLT-4 leukemia): 4.18 µM
- TGI (MOLT-4 leukemia): 27.2 µM
- GI50 (MCF7 breast): 15.3 µM
- TGI (MCF7 breast): 65.3 µM
- GI50 (LOX IMVI melanoma): 12.4 µM
- TGI (LOX IMVI melanoma): 26.8 µM
- GI50 (OVCAR-3 ovarian): 13.9 µM
- TGI (OVCAR-3 ovarian): 27.5 µM
- GI50 (UACC-257 melanoma): 15.2 µM
- TGI (UACC-257 melanoma): 29.4 µM
- GI50 (786-0 renal): 17.8 µM
- TGI (786-0 renal): 32 µM
- GI50 (RPMI-8226 leukemia): 9.64 µM
- TGI (RPMI-8226 leukemia): 36.6 µM

Reference: PubChem BioAssay (NCI)
